From patent publication US10562843B2 (The United States of America, as represented by the …, priority 2006, dated 2020) come the findings set out here.

Series [1] relates to single ventricular myocytes. Nature of the series: Cardiomyocyte contractility, single dose, with and without ICI 118,551. Type of series: cell-based.
Procedure: In these studies, the contraction amplitude indexed by electrical pacing induced shortening of cell length was measured in single ventricular myocytes before and after exposure to a single dose of the test compounds.
The target of the next series is human β2-AR (Homo sapiens, UniProt P07550).
The subject of series [2] is freshly isolated adult rat cardiomyocytes. Briefly: Cardiomyocyte contractility, dose-response. In kind it is cell-based. Particulars: for maximum contractile response: 10^−8 to 10^−5 M; for EC50: contractility dose-response. As to the method:
All studies were performed within 8 hours of cell isolation.
The cells were placed on the stage of an inverted microscope (Zeiss model IM-35, Zeiss, Thornwood, N.Y.), perfused with the HEPES-buffered solution at a flow rate of 1.8 mL/minutes, and electrically stimulated at 0.5 Hz at 23° C. Cell length was monitored by an optical edge-tracking method using a photodiode array (Model 1024 SAQ, Reticon, Boston, Mass.) with a 3 ms time resolution. Cell contraction was measured by the percent shortening of cell length following electrical stimulation.

For series [3] the following is noted: IV 5 mg/kg; for Average plasma concentration: average of rats.
A further series in a line: in vivo. As to conditions: male, Sprague-Dawley, rat, plasma, iv, 5 mg/kg.
The mark [4] stands for this setting: Average plasma concentration, average of rats, IV 5 mg/kg.
Setting [5] is: Individual plasma concentration, individual rat, IV 5 mg/kg.

Structures can show the parent of a compound that is named as a salt. Where two headings read alike, the source gives them in different places.

Sequence of human β2-AR (P07550 whole entry): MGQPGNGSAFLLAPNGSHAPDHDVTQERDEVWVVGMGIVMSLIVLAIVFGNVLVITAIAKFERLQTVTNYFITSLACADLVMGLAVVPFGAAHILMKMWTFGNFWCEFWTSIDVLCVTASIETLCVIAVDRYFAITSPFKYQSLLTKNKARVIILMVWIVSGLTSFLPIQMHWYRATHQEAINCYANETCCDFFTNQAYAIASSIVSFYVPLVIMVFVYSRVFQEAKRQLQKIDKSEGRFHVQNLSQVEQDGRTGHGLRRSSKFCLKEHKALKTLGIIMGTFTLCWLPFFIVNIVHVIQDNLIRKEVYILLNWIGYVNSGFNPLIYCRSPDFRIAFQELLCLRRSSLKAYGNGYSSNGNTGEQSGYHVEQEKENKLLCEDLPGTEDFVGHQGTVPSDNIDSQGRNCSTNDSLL

In the case of `C[C@H](Cc1cccc2ccccc12)NC[C@H](O)c1cc(O)cc(O)c1.O=C(O)/C=C/C(=O)O` [(R,R)-5, (R,R)-(−)-5-{1-hydroxy-2-[1-methyl-2-(1-naphthyl)ethylamino]ethyl}-1,3-benzenediol fumarate], in series [1], the “concentration eliciting maximum effect” value was determined as 0.1 µM. The “Ki β1/Ki β2” value at human β2-AR turned out to be 14.
In general, AUC refers to concentration integrated over time. Low values mean low exposure, high ones high exposure. `C[C@H](Cc1ccc(O)cc1)NC[C@H](O)c1cc(O)cc(O)c1` [(R,R)-1, (R,R)-(−)-Fenoterol]: the maximum contractile response in series [2] stood at 306±11.8 % resting cell length. In addition, the EC50 in series [2] is −7.1±0.2 log [M]. Also, the Average plasma concentration in series [3] (5 min) came out at 1.34 µg/mL; in series [3] (15 min), 0.36 µg/mL; in series [3] (30 min), 0.34 µg/mL; in series [3] (60 min), 0.05 µg/mL; in series [3] (120 min) it was 0.02 µg/mL; in series [3] (240 min) it was 0.01 µg/mL. In addition, the figures for the Average plasma concentration in series [3] (300 min) and in series [3] (360 min) were 0.005 µg/mL and 0.06 µg/mL, respectively. This molecule also gave an AUC in series [3] (rat, two-compartment open model) of 29.6861 µg·min/mL.
In series [2], `CC(Cc1ccc(O)cc1)NCC(O)c1ccc(O)c(O)c1` (racemic) [(±)-fenoterol, 5-[1-hydroxy-2[[2-(4-hydroxyphenyl)-1-methylethyl]-amino]ethyl]1,2-benzenediol, reference compound] displayed a maximum contractile response of 265±11.6 % resting cell length. Further, in series [2] (Rattus norvegicus, Cardiomyocyte, read-out: EC50 (converted)), the EC50 was 100 nM.
Take `C[C@@H](Cc1ccc(O)cc1)NC[C@@H](O)c1cc(O)cc(O)c1` [(S,S)-1, (S,S)-(+)-Fenoterol]: the inotropic effect result in series [2] was “only a minor positive inotropic effect”. Also, the contractile response entry in series [1] (single dose, ICI 118,551 10^−7 mol/L) was “no observed pharmacological effect”.
Broadly, the Vd is a proportionality between amount in the body and measured concentration, not a real space. A higher Vd goes with wide distribution into tissue. In general, clearance refers to the rate of elimination divided by the concentration. The term half-life denotes how long it takes for the measured level to halve. Lower therefore signals fast loss. As to `COc1ccc(C[C@@H](C)NC[C@H](O)c2cc(O)cc(O)c2)cc1` [(R,R)-2, (R,R)-(−)-1-p-Methoxyphenyl-2-(β-3′,5′-dihydroxy-phenyl-β-oxy)ethylamino-propane Fumarate], the “systemic exposure (AUC) and clearance compared to (R,R)-fenoterol” value in series [3] (rat) is “significantly higher systemic exposure (AUC) and longer clearance”. In “in vivo”, this molecule showed an AUC of 1600 ng·h/mL, a Vd of 2.19 L, a clearance of 15.4 mL/min and a half-life of 13.2 min. In the series “in vivo” (setting [4]), this molecule registered a concentration at 5 min of 2120 ng/mL, a concentration at 15 min of 580 ng/mL, a concentration at 30 min of 410 ng/mL and a concentration at 60 min of 260 ng/mL. In the series “in vivo” (setting [4]), the concentration at 120 min was determined as 170 ng/mL, the concentration at 300 min came to 70 ng/mL and the concentration at 360 min stood at 60 ng/mL. The concentration at 240 min in the series “in vivo” (Average plasma concentration, average of rats, IV 5 mg/kg, 240 min) was found to be 120 ng/mL. Also, in “in vivo” (setting [5]), the concentration at 5 min was 1940 ng/mL, the concentration at 15 min was 480 ng/mL, the concentration at 30 min was found to be 310 ng/mL and the concentration at 60 min turned out to be 230 ng/mL. Also, in the series “in vivo” (setting [5]), the concentration at 120 min came out at 140 ng/mL, the concentration at 300 min was 60 ng/mL and the concentration at 360 min worked out at 50 ng/mL.
For the molecule `C[C@@H](Cc1cccc2ccccc12)NC[C@H](O)c1cc(O)cc(O)c1.O=C(O)/C=C/C(=O)O` [(R,S)-5, (R,S)-(−)-5-{1-hydroxy-2-[1-methyl-2-(1-naphthyl)ethylamino]ethyl}-1,3-benzenediol fumarate], the “concentration eliciting maximum effect” value in series [1] was determined as 0.1 µM. The “Ki β1/Ki β2” value on human β2-AR is 46. Besides, in series [3] (rat), the “systemic exposure (AUC) and clearance compared to (R,R)-fenoterol” value was “significantly higher systemic exposure (AUC) and longer clearance”.
Regarding `C[C@H](Cc1cccc2ccccc12)NC[C@@H](O)c1cc(O)cc(O)c1.O=C(O)/C=C/C(=O)O` (racemic) [(S,R)-5, (S,R)-(+)-5-{1-hydroxy-2-[1-methyl-2-(1-naphthyl)ethylamino]ethyl}-1,3-benzenediol fumarate], the “Ki β1/Ki β2” value at human β2-AR was determined as 19.
